Results published in ChEMBL document CHEMBL6177999, “Discovery of 3-(Fluoro-imidazolyl)pyridazine Derivatives as Potent STING Agonists with Antitumor Activity” (J Med Chem, 2025).

Tests used:
[1] = target: T1, Stimulator of interferon genes protein (Mus musculus, UniProt Q3TBT3); test: Displacement of 5-FAM-labeled diABZI tracer from N-terminal 6xHis-tagged wild-type mouse STING CTD extracted from Escherichia coli BL21(DE3) incubated for 30 mins by competitive binding based fluorescence polarization assay
T1 sequence (Q3TBT3 whole entry): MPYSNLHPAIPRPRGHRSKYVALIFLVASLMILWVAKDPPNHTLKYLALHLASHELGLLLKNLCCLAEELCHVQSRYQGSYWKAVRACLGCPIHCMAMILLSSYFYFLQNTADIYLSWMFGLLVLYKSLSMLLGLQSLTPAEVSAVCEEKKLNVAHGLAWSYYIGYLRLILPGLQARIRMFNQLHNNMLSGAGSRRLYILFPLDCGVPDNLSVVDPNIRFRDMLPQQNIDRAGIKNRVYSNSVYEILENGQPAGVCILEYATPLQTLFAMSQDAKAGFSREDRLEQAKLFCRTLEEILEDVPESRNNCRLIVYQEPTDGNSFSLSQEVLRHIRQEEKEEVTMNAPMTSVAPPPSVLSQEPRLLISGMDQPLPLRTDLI

[2] = target: T1, Stimulator of interferon genes protein; test: Agonist activity at STING in mouse RAW-Lucia ISG cells harbouring SEAP reporter gene assessed as activation of cGAS-STING signaling pathway incubated for 24 hrs by QUANTI-Blue reagent based analysis
[3] = target: T1, Stimulator of interferon genes protein; test: Agonist activity at STING in mouse RAW-Lucia ISG-KO-STING cells harbouring SEAP reporter gene assessed as activation of cGAS-STING signaling pathway incubated for 24 hrs by QUANTI-Blue reagent based analysis
[4] = Clearance in female C57BL/6 mouse at 10 mg/kg, iv measured up to 24 hrs by LC-MS/MS analysis; settings: in vivo
[5] = system: B16-F10; test: Antitumor activity against mouse B16-F10 cells allografted in female C57BL/6 mouse assessed as tumor growth inhibition at 30 mg/kg, iv qd relative to control; settings: B16-F10, read-out: TGI
[6] = target: T2, Stimulator of interferon genes protein (Homo sapiens, UniProt Q86WV6); test: Displacement of 5-FAM-labeled diABZI tracer from N-terminal 6xHis-tagged human STING R232H mutant CTD extracted from Escherichia coli BL21(DE3) incubated for 30 mins by competitive binding based fluorescence polarization assay
[7] = target: T2, Stimulator of interferon genes protein; test: Displacement of 5-FAM-labeled diABZI tracer from N-terminal 6xHis-tagged wild-type human STING CTD extracted from Escherichia coli BL21(DE3) incubated for 30 mins by competitive binding based fluorescence polarization assay
[8] = target: Stimulator of interferon genes protein (Homo sapiens, UniProt Q86WV6, G230A/R293Q)
[9] = target: Stimulator of interferon genes protein (Homo sapiens, UniProt Q86WV6, R293Q)
Stimulator of interferon genes protein (Homo sapiens, UniProt Q86WV6, R293Q), sequence (Q86WV6 whole entry R293Q): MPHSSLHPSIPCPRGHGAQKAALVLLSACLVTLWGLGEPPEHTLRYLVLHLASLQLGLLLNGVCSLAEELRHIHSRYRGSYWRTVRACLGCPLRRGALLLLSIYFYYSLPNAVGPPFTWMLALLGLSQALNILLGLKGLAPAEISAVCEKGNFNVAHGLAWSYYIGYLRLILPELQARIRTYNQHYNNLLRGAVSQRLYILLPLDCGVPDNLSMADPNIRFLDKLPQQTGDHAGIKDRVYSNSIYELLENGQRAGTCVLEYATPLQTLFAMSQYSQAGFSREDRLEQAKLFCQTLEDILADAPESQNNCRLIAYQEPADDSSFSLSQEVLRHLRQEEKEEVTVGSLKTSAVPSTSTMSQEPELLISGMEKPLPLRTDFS

T2 sequence (Q86WV6 whole entry): as the sequence (Q86WV6 whole entry R293Q) above, with Q293R counted along it
Stimulator of interferon genes protein (Homo sapiens, UniProt Q86WV6, G230A/R293Q), sequence (Q86WV6 whole entry G230A/R293Q): as the sequence (Q86WV6 whole entry R293Q) above, with G230A counted along it

IC50 [1] [µM]	EC50 [2] [µM]	EC50 [3] [µM]	clearance at 24 h [4] [mL/min/kg]	IC50 [6] [µM]	IC50 [7] [µM]	IC50 [8] [µM]	IC50 [9] [µM]	SMILES	inhibition in vivo at 30 mg/kg [5] [%]
1.87	> 100	> 100	123					O=C(Nc1cc(F)c(F)cc1C(=O)O)c1ccc(-n2ccnc2)nn1	52.4
2.51	46.5	> 100		1.73	1.84	0.94	1.91	O=C(Nc1cc(Cl)c(F)cc1C(=O)O)c1ccc(-n2cnc(F)c2)nn1	
2.64	24.6	> 100		1.36	1.48	0.98	1.45	O=C(Nc1cc(Br)c(F)cc1C(=O)O)c1ccc(-n2cnc(F)c2)nn1	
